Values quoted from earlier work in US9028802B2, “Method of differentially diagnosing different types of dementia” (Koninklijke Philips Electronics N.V., priority 2007, dated 2015).

Biological target: T1, Dopamine Transporter (DAT) (Homo sapiens, UniProt Q01959)
T1 construct: those areas of the brain in which Dopamine Transporters (DAT) are localized, such as the nigrostriatum; from tissue; host or cells: brain (nigrostriatum) of the living subject, in vivo SPECT
Conditions: SPECT tracer, time point x2 after administration; 'typically'

T1 sequence (Q01959 whole entry): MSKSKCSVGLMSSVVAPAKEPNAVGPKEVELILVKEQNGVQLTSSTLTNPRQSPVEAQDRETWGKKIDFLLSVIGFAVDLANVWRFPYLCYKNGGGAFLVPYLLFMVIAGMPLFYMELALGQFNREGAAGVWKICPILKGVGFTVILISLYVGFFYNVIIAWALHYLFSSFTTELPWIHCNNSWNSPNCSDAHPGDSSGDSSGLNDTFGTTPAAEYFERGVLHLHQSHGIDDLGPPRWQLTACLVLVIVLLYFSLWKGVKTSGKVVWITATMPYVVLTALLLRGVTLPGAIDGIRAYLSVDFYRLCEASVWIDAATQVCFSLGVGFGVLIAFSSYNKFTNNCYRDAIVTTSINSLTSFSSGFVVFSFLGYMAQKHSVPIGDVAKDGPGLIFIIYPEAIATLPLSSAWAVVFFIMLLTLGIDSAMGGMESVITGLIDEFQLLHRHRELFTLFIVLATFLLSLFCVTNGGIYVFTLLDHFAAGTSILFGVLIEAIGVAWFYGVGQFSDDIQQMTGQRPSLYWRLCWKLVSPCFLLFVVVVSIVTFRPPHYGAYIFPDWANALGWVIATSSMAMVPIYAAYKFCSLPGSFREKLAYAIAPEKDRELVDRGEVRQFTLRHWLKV

COC(=O)C1C2CCC(C[C@@H]1c1ccc(I)cc1)N2CCCF (stereo partly shown) [Datscan]
time period after which association with Dopamine Transporters is observed: three to four
